US20260345582A1, “PRODRUG FOR ANTI-AGING RELATED DISEASES AND USE METHOD THEREOF” (Beijing SunCell Bio-Medical Co., Ltd., priority 2022, published 2026)

Key:
[1] = system: platelets in peripheral blood; assay: in vivo platelet toxicity test, multiple intraperitoneal injections; parameters: species or system C57 mice
Protocol: B. The schematic diagram of the multiple dosing and the subsequent blood routine examinations in mice. The drug was administered on 3 consecutive days per week, followed by a 4-day interval, for 3 weeks continuous administration. The drug was administered by intraperitoneal injection in the afternoon on days 0, 1, 2, 7, 8, 9, 14, 15, and 16, and the blood was collected and tested in the morning on days 1, 3, 5, 8, 10, 12, 15, 17, and 19, respectively.
C. Results of the platelet counts in peripheral blood on days 1, 3, 5, 8, 10, 12, 15, 17, and 19 after multiple intraperitoneal injections of different doses of the given drug. Each dot in the panel represents the count of platelets detected in 1 mouse at that time point (n=4 mice); mpk represents the milligram dose per kilogram of the body weight, A13 represents the parent compound A1331852 administration group, and A13bGa1 represents the prodrug obtained after the β-gal modification of A13. The dashed line in the panel indicates the mean value of platelet counts in mice in the single vehicle administration control group.
In Vivo Platelet Toxicity Test
A single administration of A13 or A13bG was performed. Female 5-6 week old C57 mice were treated with a single intraperitoneal injection. A13 and A13bG were administered in three different dose groups of 2, 5, and 20 mg/kg. Approximately 50 μl of blood was collected from each mouse at different time points into the EDTA tubes (RAM Scientific) by means of inner canthal blood extraction, and analyzed using a haematology analyzer for a blood routine examination and a platelet counting. Multiple administrations of A13 or A13bG were performed. Female 5-6 week old C57 mice were treated with multiple intraperitoneal injections. A13 and A13bG were administered in three different dose groups of 2, 5 and 20 mg/kg, three consecutive days per week, followed by a 4-day withdrawal for 3 weeks. The time points of administration were in the afternoon of days 0, 1, 2, 7, 8, 9, 14, 15, and 16, and the time points of blood collection and testing were in the morning of days 1, 3, 5, 8, 10, 12, 15, 17, and 19, respectively.
For a blood routine examination, 50 μl of fresh blood was collected from each mouse and immediately mixed with EDTA. Blood samples were analyzed by Celltac Alpha MEK-6400 series haematology analyzer (Nihon Kohden, MEK-6400). Data were expressed as the number of different blood cells or platelets per μl of blood. For the serum biochemical analysis, the blood samples were collected, coagulated for 2 hours at room temperature or overnight at 4 °C, and then centrifuged (1000 g, 10 minutes) to obtain serum. A 200 μl of serum was aliquoted and analyzed for alanine aminotransferase (ALT), aspartate aminotransferase (AST), uric acid (UA), and creatinine (CREA) by a chemistry analyzer (Mindray, BS-350E).

[2] = system: mouse model of Bleomycin-induced pulmonary fibrosis; assay: Masson staining of lungs (degree of fibrosis), Bleomycin-induced pulmonary fibrosis; type: in vivo, C57 mice; settings: of 6 animals; A13 2 mg/kg, A13bGa1 5 mg/kg
Protocol: (§1) A. Modelling of a mouse model of Bleomycin-induced pulmonary fibrosis, and the schematic diagram of treatment. Mice were modelled with Bleomycin administered via tracheal instillation on day 0, and the treatment with intraperitoneal injection of the drug was started on day 4. The drug was administered for 3 consecutive days per week, followed by a 4-day withdrawal, for 4 weeks.
D. Representative results of HE and Masson staining of the pathological sections of lungs taken from different groups of mice after execution. Normal represents the saline tracheal instillation modelling control group; Vehicle represents the vehicle administration control group; A13bGa1 represents the prodrug treatment group; A13 represents the A1331852 treatment group. Scale bar: 500 μm.
All drugs were mixed in 85% physiological saline, 5% DMSO (Sigma, D8418) and 10% Solutol HS 15 (Sigma, 42966), and administered to mice by intraperitoneal (i.p.) injection. To treat the bleomycin-injured young mice, A13 (2 mg/kg), A13bGa1 (5 mg/kg), or an empty vehicle control was administered three consecutive days per week for four weeks. A1331852 (abbreviated as A13) was purchased from MCE.
Bleomycin-Induced Pulmonary Fibrosis
Bleomycin was purchased from Selleck. As previously reported (Bivas-Benita et al., Eur J Pharm Biopharm 61, 214-218 (2005)), a transtracheal injection of bleomycin (2 mg/kg) was performed to the young male C57 mice (8-10 weeks old) to induce lung fibrosis. Drug treatment was initiated four days after modelling, and the drug was administered three consecutive days per week for four consecutive weeks, after which the mice were executed for material collection.
Masson trichrome stain kit (Solarbio, G1340) was used to detect fibrosis in the lung tissue. The formalin-fixed, and paraffin-embedded lung sections were dewaxed with xylene, and then rehydrated with 100% alcohol, 95% alcohol and distilled water. The sections were then stained according to the manufacturer's instructions. Afterwards, the sections were rapidly dehydrated with 95% alcohol and 100% alcohol, cleaned with xylene and covered with the coverslips. Images were acquired using a bright-field optical microscope (10× eyepiece) (OLYMPUS, BX43), and the degree of fibrosis of the lung tissue was graded according to the intensity of staining (weakly positive, moderately positive, moderately strong positive, and very strong positive).

[3] = system: mouse model of Bleomycin-induced pulmonary fibrosis; assay: lung specific gravity index in Bleomycin-induced pulmonary fibrosis; type: in vivo, C57 mice; settings: i.p. four weeks; A13 2 mg/kg, A13bGa1 5 mg/kg; FIG. 5C
Protocol: as §1
C. Comparison of lung specific gravity index calculated for different groups of mice. After completion of drug administration according to the dosing protocol, the mice were executed and the lungs of the mice were taken and weighed to calculate the lung specific gravity index, lung index=the lung weight (g)/the body weight (g)×100%. A13 represents the A1331852 treatment group at a dose of 2 mg/kg; A13bGa1 represents prodrug treatment group at a dose of 5 mg/kg; VEH represents the vehicle treatment control group; and NC represents the saline tracheal instillation modelling control group. Each dot in the panel represents the result of the lung specific gravity index of 1 mouse, n=5 in the saline modelling control group, and n=6 in other groups. The statistical analysis was performed using unpaired T-test, ns indicates no statistical difference; with *p<0.05; and **p<0.01. […]

SMILES	toxic effects on the platelets at the lowest dose ([1]; multiple rounds i.p., 2 mg/kg, 3 consecutive days per week, 3 weeks, FIG. 4C)	destructive effects on the platelets at the three doses tested ([1]; multiple rounds i.p., 2, 5, 20 mg/kg, FIG. 4C)	number of the peripheral blood platelets during monitoring ([1]; multiple rounds i.p., FIG. 4C)	degree of fibrosis, Masson staining: Moderately strong positive (+++) [2]	degree of fibrosis, Masson staining: extremely strong positive (++++) [2]	degree of fibrosis, Masson staining: moderately positive (++) [2]	degree of fibrosis, Masson staining: not positive (−) [2]	degree of fibrosis, Masson staining: weakly positive (+) [2]	lung specific gravity index (lung weight/body weight×100%) [3]	changes in the number of the peripheral blood platelets ([1]; multi-round i.p. regimen, FIG. 4C)	toxic side effects on the platelets ([1]; multi-round i.p. regimen, in contrast to A13, FIG. 4C)
Cc1c(-c2ccc(N3CCc4cccc(C(=O)Nc5nc6ccccc6s5)c4C3)nc2C(=O)O)cnn1CC12CC3CC(CC(C3)C1)C2 [Compound A13, 3-[1-(adamantan-1-ylmethyl)-5-methylpyrazol-4-yl]-6-{8-[(1,3-benzothiazol-2-yl)carbamoyl]-3,4-dihydro-1H-isoquinolin-2-yl}pyridine-2-carboxylic acid]	very serious toxic effects on the platelets	strong destructive effects on the platelets	dramatic fluctuations in the number of the peripheral blood platelets	1 number of animals	2 number of animals	1 number of animals	0 number of animals	2 number of animals	no improvement in the lung index	–	–
Cc1c(-c2ccc(N3CCc4cccc(C(=O)Nc5nc6ccccc6s5)c4C3)nc2C(=O)OCc2ccc(O[C@@H]3O[C@H](CO)[C@H](O)[C@H](O)[C@H]3O)c([N+](=O)[O-])c2)cnn1CC12CC3CC(CC(C3)C1)C2 [Compound A13bGa1]	–	–	–	0 number of animals	0 number of animals	1 number of animals	3 number of animals	2 number of animals	recovered to the normal level	relatively stable	significantly reduced
